Activity calls are given as the source filed them. How the calls were made is not given here.

This series deals with CCRIS mutagenicity, Ames/micronucleus/aberration tests. The series can be described thus: CCRIS mutagenicity studies.
The mark [1] stands for this setting: Test System: AMES SALMONELLA TYPHIMURIUM, Strain/Indicator: TA98, Metabolic Activation: NONE, Method: PREINCUBATION
The mark [2] stands for this setting: Test System: AMES SALMONELLA TYPHIMURIUM, Strain/Indicator: TA98, Metabolic Activation: NONE, Method: STANDARD PLATE.
The mark [3] stands for this setting: Test System: AMES SALMONELLA TYPHIMURIUM, Strain/Indicator: TA98, Metabolic Activation: RAT, LIVER, S-9, AROCLOR 1254, Method: STANDARD PLATE.
Where [4] appears, read: Test System: AMES SALMONELLA TYPHIMURIUM, Strain/Indicator: TA100, Metabolic Activation: HAMSTER, LIVER, S-9, AROCLOR 1254 (10%), Method: PREINCUBATION
Setting [5] is: Test System: AMES SALMONELLA TYPHIMURIUM, Strain/Indicator: TA100, Metabolic Activation: NONE, Method: PREINCUBATION
The mark [6] stands for this setting: Test System: AMES SALMONELLA TYPHIMURIUM, Strain/Indicator: TA100, Metabolic Activation: NONE, Method: STANDARD PLATE.
Setting [7] is: Test System: AMES SALMONELLA TYPHIMURIUM, Strain/Indicator: TA100, Metabolic Activation: RAT, LIVER, S-9, AROCLOR 1254 (10%), Method: PREINCUBATION
[8] abbreviates: Test System: AMES SALMONELLA TYPHIMURIUM, Strain/Indicator: TA100, Metabolic Activation: RAT, LIVER, S-9, AROCLOR 1254, Method: STANDARD PLATE.
[9] abbreviates: Test System: AMES SALMONELLA TYPHIMURIUM, Strain/Indicator: TA1535, Metabolic Activation: NONE, Method: PREINCUBATION
The mark [10] stands for this setting: Test System: AMES SALMONELLA TYPHIMURIUM, Strain/Indicator: TA1535, Metabolic Activation: NONE, Method: STANDARD PLATE.
Where [11] appears, read: Test System: AMES SALMONELLA TYPHIMURIUM, Strain/Indicator: TA1535, Metabolic Activation: RAT, LIVER, S-9, AROCLOR 1254, Method: STANDARD PLATE.
[12] abbreviates: Test System: AMES SALMONELLA TYPHIMURIUM, Strain/Indicator: TA1537, Metabolic Activation: HAMSTER, LIVER, S-9, AROCLOR 1254 (10%), Method: PREINCUBATION
[13] abbreviates: Test System: AMES SALMONELLA TYPHIMURIUM, Strain/Indicator: TA1537, Metabolic Activation: NONE, Method: PREINCUBATION
Where [14] appears, read: Test System: AMES SALMONELLA TYPHIMURIUM, Strain/Indicator: TA1537, Metabolic Activation: NONE, Method: STANDARD PLATE.
Where [15] appears, read: Test System: AMES SALMONELLA TYPHIMURIUM, Strain/Indicator: TA1537, Metabolic Activation: RAT, LIVER, S-9, AROCLOR 1254 (10%), Method: PREINCUBATION
[16] abbreviates: Test System: AMES SALMONELLA TYPHIMURIUM, Strain/Indicator: TA1537, Metabolic Activation: RAT, LIVER, S-9, AROCLOR 1254, Method: STANDARD PLATE.

As for `CN(C)CCCN1c2ccccc2Sc2ccc(Cl)cc21`, the mutagenic call (End Point: IN VITRO CHROMOSOMAL ABERRATIONS, Test System: CHINESE HAMSTER OVARY CELLS, Metabolic Activation: NONE) is “inactive; negative”; the mutagenic call (End Point: IN VITRO CHROMOSOMAL ABERRATIONS, Test System: CHINESE HAMSTER OVARY CELLS, Metabolic Activation: RAT, LIVER, S-9, AROCLOR 1254) was “inactive; negative”; the mutagenic call (Test System: AMES SALMONELLA TYPHIMURIUM, Strain/Indicator: TA98, Metabolic Activation: HAMSTER, LIVER, S-9, AROCLOR 1254 (10%), Method: PREINCUBATION) is “inactive; negative”; the mutagenic call under setting [1] is “inactive; negative”; the mutagenic call (Test System: AMES SALMONELLA TYPHIMURIUM, Strain/Indicator: TA98, Metabolic Activation: NONE, Method: SPOT TEST) is “inactive; negative”; the mutagenic call under setting [2] is “inactive; negative”. The mutagenic call was “inactive; negative” (Test System: AMES SALMONELLA TYPHIMURIUM, Strain/Indicator: TA98, Metabolic Activation: RAT, LIVER, S-9, AROCLOR 1254 (10%), Method: PREINCUBATION); “inactive; negative” under setting [3]; “inactive; negative” under setting [4]; “inactive; negative” under setting [5]; “inactive; negative” under setting [6]; “inactive; negative” under setting [7]. The mutagenic call under setting [8] is “inactive; negative”; the mutagenic call (Test System: AMES SALMONELLA TYPHIMURIUM, Strain/Indicator: TA1535, Metabolic Activation: HAMSTER, LIVER, S-9, AROCLOR 1254 (10%), Method: PREINCUBATION) was “inactive; negative”; the mutagenic call under setting [9] is “inactive; negative”; the mutagenic call under setting [10] is “inactive; negative”; the mutagenic call (Test System: AMES SALMONELLA TYPHIMURIUM, Strain/Indicator: TA1535, Metabolic Activation: RAT, LIVER, S-9, AROCLOR 1254 (10%), Method: PREINCUBATION) is “inactive; negative”; the mutagenic call under setting [11] is “inactive; negative”. In addition, the mutagenic call reads like this: under setting [12], “inactive; negative”; under setting [13], “inactive; negative”; under setting [14], “inactive; negative”; under setting [15], “active; positive”; under setting [16], “inactive; negative”; (Test System: CHINESE HAMSTER V-79, Strain/Indicator: V-79/6-THIOGUANINE, Metabolic Activation: NONE) “inactive; negative”. Moreover, for the setting “Test System: CHINESE HAMSTER V-79, Strain/Indicator: V-79/OUABAIN, Metabolic Activation: NONE”, the mutagenic call was “inactive; negative”.

Turning to `Nc1ccc(CCc2ccccc2)cc1`, the mutagenic call is, setting by setting: under setting [2], “inactive; negative”; under setting [3], “active; positive”; under setting [6], “inactive; negative”; under setting [8], “active; positive”.

For the molecule `CCOc1ccc(NO)cc1`, the mutagenic call is “inactive; negative” (Test System: AMES SALMONELLA TYPHIMURIUM, Strain/Indicator: TA100(NR), Metabolic Activation: NONE, Method: PREINCUBATION); “inactive; negative” (Test System: AMES SALMONELLA TYPHIMURIUM, Strain/Indicator: TA100(NR), Metabolic Activation: NONE, Method: STANDARD PLATE); “active; positive” (Test System: AMES SALMONELLA TYPHIMURIUM, Strain/Indicator: TA100, Metabolic Activation: HAMSTER, LIVER, S-9, KANECHLOR 400, Method: PREINCUBATION); “inactive; negative” under setting [6]; “inactive; negative” (Test System: AMES SALMONELLA TYPHIMURIUM, Strain/Indicator: TA100TN5-1,8-DNP1011, Metabolic Activation: NONE, Method: PREINCUBATION); “inactive; negative” (Test System: AMES SALMONELLA TYPHIMURIUM, Strain/Indicator: TA100TN5-1,8-DNP1011, Metabolic Activation: NONE, Method: STANDARD PLATE). Also, the mutagenic call by setting is: (Test System: AMES SALMONELLA TYPHIMURIUM, Strain/Indicator: TA100TN5-1,8-DNP1012, Metabolic Activation: NONE, Method: PREINCUBATION) “inactive; negative”; (Test System: AMES SALMONELLA TYPHIMURIUM, Strain/Indicator: TA100TN5-1,8-DNP1012, Metabolic Activation: NONE, Method: STANDARD PLATE) “inactive; negative”; (Test System: AMES SALMONELLA TYPHIMURIUM, Strain/Indicator: YG1026, Metabolic Activation: NONE, Method: PREINCUBATION) “active; positive”; (Test System: AMES SALMONELLA TYPHIMURIUM, Strain/Indicator: YG1029, Metabolic Activation: NONE, Method: PREINCUBATION) “active; positive”; (Test System: AMES SALMONELLA TYPHIMURIUM, Strain/Indicator: YG1042, Metabolic Activation: NONE, Method: PREINCUBATION) “active; positive”.

In the case of `NCCNCCNCCNCCN`, the mutagenic call runs as follows: under setting [1], “active; positive”; under setting [2], “inactive; negative”; under setting [3], “inactive; negative”; (Test System: AMES SALMONELLA TYPHIMURIUM, Strain/Indicator: TA98, Metabolic Activation: RAT, LIVER, S-9, PCB, Method: PREINCUBATION) “inactive; negative”; under setting [4], “active; positive”; under setting [5], “active; positive”. Also, the mutagenic call by setting is: under setting [6], “inactive; negative”; under setting [7], “active; positive”; under setting [8], “inactive; negative”; (Test System: AMES SALMONELLA TYPHIMURIUM, Strain/Indicator: TA100, Metabolic Activation: RAT, LIVER, S-9, PCB, Method: PREINCUBATION) “inactive; negative”; under setting [9], “inactive; negative”; under setting [10], “inactive; negative”. For the same molecule, the mutagenic call is “inactive; negative” under setting [11]; “inactive; negative” under setting [12]; “inactive; negative” under setting [13]; “inactive; negative” under setting [14]; “inactive; negative” under setting [15]; “inactive; negative” under setting [16]. The mutagenic call by setting is: (Test System: AMES SALMONELLA TYPHIMURIUM, Strain/Indicator: TA1538, Metabolic Activation: NONE, Method: STANDARD PLATE) “inactive; negative”; (Test System: AMES SALMONELLA TYPHIMURIUM, Strain/Indicator: TA1538, Metabolic Activation: RAT, LIVER, S-9, AROCLOR 1254, Method: STANDARD PLATE) “inactive; negative”; (Test System: CHINESE HAMSTER OVARY, Strain/Indicator: CHO (HGPRT)/6-THIOGUANINE, Metabolic Activation: NONE) “inactive; negative”; (Test System: CHINESE HAMSTER OVARY, Strain/Indicator: CHO (HGPRT)/6-THIOGUANINE, Metabolic Activation: RAT, LIVER, S-9, AROCLOR 1254) “inactive; negative”; (Test System: UDS RAT HEPATOCYTES, Strain/Indicator: THY INCORP, Metabolic Activation: NONE, Method: SCINTILLATION SPECTROMETRY) “active; positive”.

Consider `Cc1ccc(N=Cc2cccc3cccnc23)c(C(=O)O)c1`, for which the mutagenic call by setting is: under setting [2], “inactive; negative”; under setting [3], “inactive; negative”; under setting [6], “inactive; negative”; under setting [8], “inactive; negative”; under setting [10], “inactive; negative”; under setting [11], “inactive; negative”. In addition, the mutagenic call is “inactive; negative” under setting [14] and “inactive; negative” under setting [16].

For the origin of these results see PubChem BioAssay AID1259407 (Chemical Carcinogenesis Research Information System (CCRIS), 2018).
